Source: US11497713B2, “Combination taxoid nanoemulsion with immunotherapy in cancer” (TargaGenix, Inc., priority 2017, dated 2022)

Test system: human PANC-1 pancreatic tumor xenograft
Test: Human PANC-1 pancreatic tumor xenograft, schedule comparison (FIG. 3)
Format: in vivo, RPCI SCID mice
Excerpt: In FIG. 3, this experiment compared a q7d×3 with a q3d×3 schedule for paclitaxel and DHA-SBT-1214 using a human PANC-1 pancreatic tumor xenograft in RPCI SCID mice. […] Paclitaxel was only weakly effective, showing tumor growth delays of 18 days with q7d×3 schedule and 13 days with q3d×3 schedule and no CRs.

For CC/C=C\C/C=C\C/C=C\C/C=C\C/C=C\C/C=C\CCC(=O)O[C@@H](C(=O)O[C@H]1C[C@@]2(O)[C@@H](OC(=O)c3ccccc3)[C@@H]3[C@]4(OC(C)=O)CO[C@@H]4C[C@H](O)[C@@]3(C)C(=O)[C@H](OC(=O)C3CC3)C(=C1C)C2(C)C)[C@H](C=C(C)C)NC(=O)OC(C)(C)C [DHA-SBT-1214, Docosahexaenoic acid conjugate of SBT-1214], the toxic deaths (300 mg/kg total dose) was “one toxic death”, the “complete responses (CRs)” value (PANC-1 xenograft) was “achieved CRs and essentially were cured” and the tumor growth delay (both schedules (q7d×3 and q3d×3)) was > 90 days. For the same compound, the MTD (total dosage (80 mg/kg×3 inj)) was 240 mg/kg.
